{
  "source": "paper PMC6934184",
  "about": "“Selective DNA-PKcs inhibition extends the therapeutic index of localized radiotherapy and chemotherapy” (The Journal of Clinical Investigation, 2019)",
  "target": "T1, PRKG2 (PKG2) (Homo sapiens, UniProt Q13237)",
  "T1 construct": "purchased Thermo Fisher Scientific (Life Technologies) SelectScreen",
  "T1 sequence (Q13237 whole entry)": "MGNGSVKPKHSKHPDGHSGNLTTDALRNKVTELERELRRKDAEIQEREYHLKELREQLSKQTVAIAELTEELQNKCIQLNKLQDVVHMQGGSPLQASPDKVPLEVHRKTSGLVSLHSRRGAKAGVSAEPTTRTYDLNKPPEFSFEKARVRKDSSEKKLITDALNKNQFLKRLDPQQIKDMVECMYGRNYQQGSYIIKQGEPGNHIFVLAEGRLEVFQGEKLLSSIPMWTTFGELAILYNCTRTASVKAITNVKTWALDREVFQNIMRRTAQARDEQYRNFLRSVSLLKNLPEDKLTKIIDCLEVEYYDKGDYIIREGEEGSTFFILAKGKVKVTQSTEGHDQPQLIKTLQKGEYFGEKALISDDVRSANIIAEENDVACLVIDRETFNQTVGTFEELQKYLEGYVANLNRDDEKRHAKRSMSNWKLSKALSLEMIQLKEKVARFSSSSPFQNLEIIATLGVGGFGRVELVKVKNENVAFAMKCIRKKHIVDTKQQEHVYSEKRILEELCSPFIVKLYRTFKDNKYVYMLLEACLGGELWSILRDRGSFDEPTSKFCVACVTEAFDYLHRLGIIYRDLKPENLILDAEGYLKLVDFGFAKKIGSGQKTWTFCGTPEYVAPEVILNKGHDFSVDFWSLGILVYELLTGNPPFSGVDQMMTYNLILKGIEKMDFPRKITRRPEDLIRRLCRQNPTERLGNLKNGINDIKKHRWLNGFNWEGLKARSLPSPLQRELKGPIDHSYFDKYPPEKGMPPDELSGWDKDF",
  "test": "SelectScreen Z'LYTE",
  "format": "biochemical",
  "outline": "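NU5455 was profiled across the SelectScreen Broad panel of kinase activity and binding assays. Z'LYTE reactions such as CSF1R ran at apparent Km ATP, while the Adapta CAMK1 assay used ATP listed as 10. Values are given as percent.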",
  "data": [
    {"smiles": "CN(C(=O)CN1CCOCC1)c1ccc2sc3c(-c4cccc5c(=O)cc(N6CC7CCC(C6)O7)oc45)cccc3c2c1", "note": "[NU5455]", "values": [
      {"measurement": "inhibition at 1 µM", "result": -5.1, "unit": "%"}
    ]}
  ]
}
